Measured values as given in patent US9849197B2, “Switching-type fluorescent nanoparticle probe, and fluorescent molecular imaging method using same” (KYOTO UNIVERSITY, priority 2011, dated 2017).

Assay: Change in fluorescence intensity of lactosome encapsulating fluorescent dye due to change in external environment 1
Type: physicochemical
Details: lactosome encapsulating 20 mol % of the dye; for fluorescence intensity in the SDS solution: 5 wt % SDS 1:1, room temperature 30 minutes; for fluorescence intensity in the BSA solution: 5 wt % albumin (BSA) 1:1, room temperature 30 minutes; for fluorescence intensity in the plasma: plasma from male ddY mice 1:1, room temperature 30 minutes
Description: In FIGS. 2(A) to 2(D), the horizontal axis represents wavelength and the vertical axis represents fluorescence intensity.

CC1(C)C(/C=C/C2=C(Cl)C(=C/C=C3/N(CCCCCC(=O)O)c4ccc5ccccc5c4C3(C)C)/CCC2)=[N+](CCO)c2ccc3ccccc3c21 [IC7-1]
recovered: fluorescence intensity in the SDS solution | fluorescence intensity in the BSA solution | fluorescence intensity in the plasma

CC1(C)C(/C=C/C=C/C=C/C=C2\N(CCCCS(=O)(=O)O)c3ccc4ccccc4c3C2(C)C)=[N+](CCCCS(=O)(=O)[O-])c2ccc3ccccc3c21 [ICG, indocyanine green]
recovered: fluorescence intensity in the SDS solution | fluorescence intensity in the BSA solution | fluorescence intensity in the plasma
